Experimental data taken from patent US10882853B2, “Tyrosine kinase inhibitor and application thereof” (LaNova Medicines Limited, priority 2016, dated 2021).
Like-named read-outs stand apart in the source and are kept apart here.

Experiments:
[1] = target: KDR (Homo sapiens (Human), UniProt P35968); experiment: Inhibitory activity on KDR kinase (HTRF, XL-665/antibody); assay type: biochemical
Protocol: The compounds in the above Examples are used for detecting and screening the inhibitory activities of C-MET and KDR kinase.
(2) Incubated at 25° C. for 5 min;
(3) 2 μL of ATP/substrate/MgCl2/MnCl2/SEB/DTT mixed solution were added into the holes;
(4) Centrifugated at 1000 rpm for 1 min, and incubated by vibration at 30° C. for 30 min;
(6) Incubated at 25° C. for 1 h;
(8) The data was analyzed according to the instructions of the kit, and the fitting calculation of IC50 was performed using GraphPad Prism5.

[2] = tested on: human lung adenocarcinoma cells HCC78; experiment: Inhibition on the proliferation of tumor cells (CCK8), HCC78; assay type: cell-based; conditions: read-out: HCC78 IC50
Protocol: (§1) (1) Culture cells: The tumor cells (such as human lung adenocarcinoma cells HCC78, human malignant glioma cells U87MG, human gastric cancer cells MKN-45, human umbilical vein endothelial cells HUVEC, human lung adenocarcinoma cells A549, etc.) were cultured in culture medium; culture conditions: 37° C., 5% CO2.
(§2) (2) Inoculate cells: The cells at the exponential growth phase and in good state were taken, and an appropriate amount of pancreatin for cell dissociation was added thereto, the cells were collected for centrifugation, and the supernatant was discarded. The cells were resuspended with the culture solution containing serum, then counted, and the cell suspensions were taken and inoculated in a 96-hole plate at 3000/hole, 90 μL/hole. The culture plate was transferred into a constant temperature CO2 incubator, and cultured under the conditions of 37° C., 5% CO2 and saturated humidity for 24 h.
(§3) (3) Add the test compounds: 10 μL/hole, culture for 72 h, 3 parallel holes were set for each group.

[3] = tested on: human malignant glioma cells U87MG; experiment: Inhibition on the proliferation of tumor cells (CCK8), U87MG; assay type: cell-based; conditions: read-out: U87MG IC50
Protocol: as §1, §2, §3
(§4) (4) Determine the results: After 72 h of action for the compounds, 10 μL/hole CCK8 was added, incubated in the incubator for an appropriate time, and the absorbance was measured at 450 nm.

[4] = tested on: human gastric cancer cells MKN-45; experiment: Inhibition on the proliferation of tumor cells (CCK8), MKN-45; assay type: cell-based; conditions: read-out: MKN-45 IC50
Protocol: as §1, §2, §3, §4

[5] = tested on: human ovarian cancer cells SK-OV-3; experiment: Inhibition on the proliferation of tumor cells (CCK8), SK-OV-3; assay type: cell-based; conditions: for IC50: read-out: SK-OV-3 IC50
Protocol: as §1, §2, §3

[6] = tested on: human colon cancer cells HCT116; experiment: Inhibition on the proliferation of tumor cells (CCK8), HCT116; assay type: cell-based; conditions: for IC50: read-out: HCT116 IC50
Protocol: as §1, §2, §3

[7] = tested on: human lung adenocarcinoma cells A549; experiment: Inhibition on the proliferation of tumor cells (CCK8), A549; assay type: cell-based; conditions: for IC50: read-out: A549 IC50
Protocol: as §1, §2, §3

Sequence of KDR (P35968 20-1356): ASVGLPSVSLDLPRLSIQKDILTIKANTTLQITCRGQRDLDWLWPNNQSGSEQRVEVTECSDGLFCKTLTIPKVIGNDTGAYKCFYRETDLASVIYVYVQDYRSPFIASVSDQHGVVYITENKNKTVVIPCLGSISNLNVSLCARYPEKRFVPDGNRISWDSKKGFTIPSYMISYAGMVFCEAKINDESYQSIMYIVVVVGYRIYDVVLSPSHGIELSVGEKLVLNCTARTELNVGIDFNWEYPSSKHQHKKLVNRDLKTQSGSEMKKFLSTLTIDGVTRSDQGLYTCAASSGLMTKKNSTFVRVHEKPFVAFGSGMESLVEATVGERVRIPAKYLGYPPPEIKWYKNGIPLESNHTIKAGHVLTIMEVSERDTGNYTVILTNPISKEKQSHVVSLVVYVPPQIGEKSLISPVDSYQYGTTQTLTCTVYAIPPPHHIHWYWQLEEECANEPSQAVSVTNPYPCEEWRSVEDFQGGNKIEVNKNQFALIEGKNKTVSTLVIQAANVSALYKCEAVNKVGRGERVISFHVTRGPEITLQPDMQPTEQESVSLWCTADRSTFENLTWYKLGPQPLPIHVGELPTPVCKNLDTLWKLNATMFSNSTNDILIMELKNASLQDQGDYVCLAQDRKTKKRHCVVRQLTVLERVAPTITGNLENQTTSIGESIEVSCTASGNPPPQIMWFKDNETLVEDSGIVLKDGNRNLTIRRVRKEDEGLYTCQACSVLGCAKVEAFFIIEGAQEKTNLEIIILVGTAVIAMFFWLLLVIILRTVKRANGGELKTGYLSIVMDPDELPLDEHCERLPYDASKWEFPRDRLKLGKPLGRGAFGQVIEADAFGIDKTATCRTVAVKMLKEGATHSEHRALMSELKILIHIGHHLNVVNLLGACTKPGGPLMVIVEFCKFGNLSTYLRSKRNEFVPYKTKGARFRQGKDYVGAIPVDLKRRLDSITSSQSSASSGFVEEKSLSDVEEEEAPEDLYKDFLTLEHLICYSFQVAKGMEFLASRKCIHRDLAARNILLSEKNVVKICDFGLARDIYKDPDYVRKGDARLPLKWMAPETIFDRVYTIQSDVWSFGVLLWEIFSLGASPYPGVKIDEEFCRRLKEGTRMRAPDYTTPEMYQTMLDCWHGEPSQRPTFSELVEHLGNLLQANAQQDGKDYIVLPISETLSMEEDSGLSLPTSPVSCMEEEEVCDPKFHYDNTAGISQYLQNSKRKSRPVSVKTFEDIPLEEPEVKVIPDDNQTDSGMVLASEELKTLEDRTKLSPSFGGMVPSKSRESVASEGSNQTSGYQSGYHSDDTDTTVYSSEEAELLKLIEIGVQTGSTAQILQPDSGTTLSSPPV

`COc1cc2c(Oc3ccc(NC(=O)C4(C(=O)Nc5ccc(F)cc5)CC4)cc3F)ccnc2cc1OCC1CC(N2CCOCC2)C1` (centres unmarked) [Compound 5] was tested, and the IC50 [1] was 39.9 nM, the IC50 ([2]; Table 4 (FIG. 4), 72 h, CCK8) was 44.2 nM and the IC50 ([3]; 72 h, CCK8) was 1140 nM. The IC50 ([4]; 72 h, CCK8) was 1260 nM, the IC50 ([5]; 72 h, CCK8) was 3490 nM and the IC50 ([6]; 72 h, CCK8) was 1660 nM. It also gave an IC50 ([7]; 72 h, CCK8) of 1600 nM.
Molecule `COc1cc2c(Oc3ccc(NC(=O)C4(C(=O)Nc5ccc(F)cc5)CC4)cc3F)ccnc2cc1OC1CC(N2CCOCC2)C1` (centres unmarked) [Compound 10, N-p-fluorophenyl-N-3-fluoro-4-[6-methoxyl-7-(3-morpholine-cyclobutyl)oxyquinoline-4-]oxyphenyl cyclopropyl-1,1-dimethyl formamide] has an IC50 [1] of 64.2 nM, an IC50 [2] of 107 nM and an IC50 [3] of 1600 nM. For the same molecule, the IC50 [4] was 3200 nM, the IC50 [5] was 7850 nM and the IC50 [6] was 2600 nM. The IC50 [7] was 4400 nM.
`COc1cc2c(Oc3ccc(NC(=O)C4(C(=O)Nc5ccc(F)c(F)c5)CC4)cc3F)ccnc2cc1OCCC[N+]1(C)CCOCC1` [For-Methyl, reference compound] was tested, and the IC50 ([2]; Homo sapiens, HCC78, 72 h) was over 10000 nM, the “SK-OV-3 IC50” value [5] was “No inhibition” and the “HCT116 IC50” value [6] was “No inhibition”. The “A549 IC50” value [7] was “No inhibition”.
`COc1cc2c(Oc3ccc(NC(=O)C4(C(=O)Nc5ccc(F)cc5)CC4)cc3F)ccnc2cc1OCCCN1CCOCC1` [Foretinib, reference compound] gave an IC50 ([3]; Homo sapiens, U-87 MG, 72 h) of 1650 nM, an IC50 ([4]; Homo sapiens, MKN-45, 72 h) of 1870 nM and an IC50 ([5]; Homo sapiens, SK-OV-3, 72 h) of 17200 nM. For the same molecule, the IC50 ([6]; Homo sapiens, HCT-116, 72 h) was 2060 nM and the IC50 ([7]; Homo sapiens, A549, 72 h) was 2830 nM.
